Where a name gives a salt, the structure may show the parent alone.
The compounds below were run against human RORγt LBD (Homo sapiens (Human), UniProt P51449) (assay: RORγt reporter assay (GAL4-RORγt LBD luciferase, HEK293T cells)). Settings: 6 μM, HEK293T cells.
Format: cell-based
Excerpt: A reporter assay was used to test functional activity of RORγt modulatory compounds on transcriptional activation driven by the RORγt LBD. Cells used in the assay were co-transfected with two constructs. The first construct, pBIND-RORγt LBD, contained the wild type human RORγt LBD fused to the DNA binding domain of the GAL4 protein. The second construct, pGL4.31 (Promega Cat no. C935A), contained multiple GAL4 responsive DNA elements upstream of firefly luciferase. […] The mutant construct was called pBIND-RORγt-AF2. […] The pBIND vector contains the GAL4 DNA Binding Domain (GAL4 DBD) and the renilla luciferase gene under control of the SV40 promoter. Renilla luciferase expression serves as a control for transfection efficiency and cell viability.
The reporter assay was performed by transiently transfecting HEK293T cells with 5 μg of pBIND-RORγt LBD or pBIND-RORγt LBD-AF2 and 5 μg pGL4.31 (Promega Cat no. C935A) using Fugene 6 (Invitrogen Cat no. E2691) at a 1:6 ratio of DNA: Fugene 6 in a T-75 flask in which cells were at least 80% confluent. Twenty four hours after bulk transfection, cells were plated into 96-well plates at 50,000 cells/well in phenol-red free DMEM containing 5% Lipid Reduced FCS and Pen/Strep. Six hours after plating, cells were treated with compounds for 24 hours. Media was removed and cells were lysed with 50 μL 1x Glo Lysis Buffer (Promega). Dual Glo Luciferase Reagent (50 μL/well) was then added and firefly luciferase luminescence was read on an Envision after a ten minute incubation. Finally, Stop and Glo reagent (50 μL/well) was added and renilla luciferase luminescence was read on an Envision after a ten minute incubation. To calculate the effect of compounds on RORγt activity, the ratio of firefly to renilla luciferase was determined and plotted against compound concentration. Agonist compounds increase RORγt-driven luciferase expression, and antagonist or inverse agonist compounds decrease luciferase expression.

human RORγt LBD, sequence (P51449 258-518): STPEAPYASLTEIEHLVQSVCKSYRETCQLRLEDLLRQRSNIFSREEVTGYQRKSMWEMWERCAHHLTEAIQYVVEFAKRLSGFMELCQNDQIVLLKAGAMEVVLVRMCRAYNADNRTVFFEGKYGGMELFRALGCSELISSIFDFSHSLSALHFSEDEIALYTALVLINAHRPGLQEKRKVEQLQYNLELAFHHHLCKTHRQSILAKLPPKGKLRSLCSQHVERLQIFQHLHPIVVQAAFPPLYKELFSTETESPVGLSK

RORγt reporter Assay, % inhibition @ 6 μM | SMILES
77% | CCN(CC)c1nc2ccc(C(O)(c3ccc(Cl)cc3)c3cncn3C)cc2c(Cl)c1Oc1ccccc1 (single isomer, unassigned) [Example 3b, (4-Chloro-2-(diethylamino)-3-phenoxyquinolin-6-yl)(4-chlorophenyl)(1-methyl-1H-imidazol-5-yl)methanol]
69% | CCOc1nc2ccc(C(O)(c3ccc(C(F)(F)F)nc3)c3cncn3C)cc2c(Cl)c1Oc1ccc(F)cc1 (single isomer, unassigned) [Example 14b, (4-Chloro-2-ethoxy-3-(4-fluorophenoxy)quinolin-6-yl)(1-methyl-1H-imidazol-5-yl)(6-(trifluoromethyl)pyridin-3-yl)methanol]
18% | CCOc1nc2ccc(C(O)(c3ccc(C(F)(F)F)nc3)c3cncn3C)cc2c(Cl)c1Oc1ccc(F)cc1 (single isomer, unassigned) [Example 14c, (4-Chloro-2-ethoxy-3-(4-fluorophenoxy)quinolin-6-yl)(1-methyl-1H-imidazol-5-yl)(6-(trifluoromethyl)pyridin-3-yl)methanol]
82% | COc1nc2ccc(C(O)(c3ccc(Cl)cc3)c3cncn3C)cc2c(Cl)c1Oc1ccccc1 (single isomer, unassigned) [Example 15c, (4-Chloro-2-methoxy-3-phenoxyquinolin-6-yl)(4-chlorophenyl)(1-methyl-1H-imidazol-5-yl)methanol]
67% | CCOc1nc2ccc(C(O)(c3ccc(C(F)(F)F)nc3)c3cncn3C)cc2c(C(F)(F)F)c1Oc1ccc(Cl)cc1 (single isomer, unassigned) [Example 25c, (3-(4-Chlorophenoxy)-2-ethoxy-4-(trifluoromethyl)quinolin-6-yl)(1-methyl-1H-imidazol-5-yl)(6-(trifluoromethyl)pyridin-3-yl)methanol]

Same assay, conditions: HEK293T cells, 24 hours compound treatment

IC50 | SMILES
~6 µM | Cn1cncc1C(O)(c1ccc(C(F)(F)F)nc1)c1ccc2nc(C#N)c(Oc3ccccc3)c(C#N)c2c1 (centres unmarked) [Example 22a, 6-(Hydroxy(1-methyl-1H-imidazol-5-yl)(6-(trifluoromethyl)pyridin-3-yl)methyl)-3-phenoxyquinoline-2,4-dicarbonitrile]

Same assay, conditions: HEK-293T, read-out: RORγt reporter Assay, % inhibition @ 6 μM, 6 μM, HEK293T cells

SMILES | inhibition at 6 µM
COc1ccc(C(O)(c2ccc3nc(Cl)c(Oc4ccccc4)c(Cl)c3c2)c2cncn2C)cn1 (centres unmarked) [Example 4, (2,4-Dichloro-3-phenoxyquinolin-6-yl)(6-methoxypyridin-3-yl)(1-methyl-1H-imidazol-5-yl)methanol] | 92%
CCN(CC)c1nc2ccc(C(O)(c3ccc(C(F)(F)F)nc3)c3cncn3C)cc2c(Cl)c1Oc1ccc(F)cc1 (centres unmarked) [Example 9a] | 97%
COc1c(Oc2ccccc2)c(Cl)nc2ccc(C(O)(c3ccc(Cl)cc3)c3cncn3C)cc12 (centres unmarked) [Example 18, (2-Chloro-4-methoxy-3-phenoxyquinolin-6-yl)(4-chlorophenyl)(1-methyl-1H-imidazol-5-yl)methanol] | 88%
Cn1cncc1C(O)(c1ccc(C(F)(F)F)nc1)c1ccc2nc(C#N)c(Oc3ccccc3)c(Cl)c2c1 (centres unmarked) [Example 21, 4-Chloro-6-(hydroxy(1-methyl-1H-imidazol-5-yl)(6-(trifluoromethyl)pyridin-3-yl)methyl)-3-phenoxyquinoline-2-carbonitrile.TFA] | 80%
Cn1cncc1C(O)(c1ccc(Cl)cc1)c1ccc2nc(C#N)c(Oc3ccc(F)cc3)c(Cl)c2c1 (centres unmarked) [Example 23, 4-Chloro-6-((4-chlorophenyl)(hydroxy)(1-methyl-1H-imidazol-5-yl)methyl)-3-(4-fluorophenoxy)quinoline-2-carbonitrile.TFA] | 80%
Cn1cncc1C(O)(c1ccc(C(F)(F)F)nc1)c1ccc2nc(C#N)c(Oc3ccc(Cl)cc3)c(C(F)(F)F)c2c1 (centres unmarked) [Example 24, 3-(4-Chlorophenoxy)-6-(hydroxy(1-methyl-1H-imidazol-5-yl)(6-(trifluoromethyl)pyridin-3-yl)methyl)-4-(trifluoromethyl)quinoline-2-carbonitrile] | 55%
CCN(CC)c1nc2ccc(C(O)(c3ccc(Cl)cc3)c3cncn3C)cc2c(C(F)(F)F)c1Oc1ccccc1 (centres unmarked) [Example 29, (4-Chlorophenyl)(2-(diethylamino)-3-phenoxy-4-(trifluoromethyl)quinolin-6-yl)(1-methyl-1H-imidazol-5-yl)methanol.TFA] | 93%
COCCN(C)c1nc2ccc(C(O)(c3ccc(C(F)(F)F)nc3)c3cncn3C)cc2c(Cl)c1Oc1ccccc1 (centres unmarked) [Example 34, (4-Chloro-2-((2-methoxyethyl)(methyl)amino)-3-phenxoyquinolin-6-yl)(1-methyl-1H-imidazol-5-yl)(6-(trifluoromethyl)pyridin-3-yl)methanol.TFA] | 95%
CCN(CC)c1nc2ccc(C(O)(c3ccc(Cl)cc3)c3cncn3C)cc2c(Cl)c1N(C(=O)OC(C)(C)C)c1ccccc1 (centres unmarked) [Example 44, tert-Butyl (4-chloro-6-((4-chlorophenyl)(hydroxyl)(1-methyl-1H-imidazol-5-yl)methyl)-2-(diethylamino)quinolin-3-yl)(phenyl)carbamate.TFA] | 62%
Cn1cncc1C(O)(c1ccc(C(F)(F)F)nc1)c1ccc2nc(Cl)c(Oc3ccc(Cl)cc3)c(C(F)(F)F)c2c1 (centres unmarked) [Example 46, (2-Chloro-3-(4-chlorophenoxy)-4-(trifluoromethyl)quinolin-6-yl)(1-methyl-1H-imidazol-5-yl)(6-(trifluoromethyl)pyridin-3-yl)methanol] | 39%

Continued, values first:

inhibition at 6 µM | SMILES
86% | COc1nc2ccc(C(O)(c3ccc(Cl)cc3)c3cncn3C)cc2c(Cl)c1Oc1ccccc1 (single isomer, unassigned) [Example 15b, (4-Chloro-2-methoxy-3-phenoxyquinolin-6-yl)(4-chlorophenyl)(1-methyl-1H-imidazol-5-yl)methanol]
95% | CCOc1nc2ccc(C(O)(c3ccc(OC)nc3)c3cncn3C)cc2c(Cl)c1Oc1ccccc1 (centres unmarked) [Example 10a, (4-Chloro-2-ethoxy-3-phenoxyquinolin-6-yl)(6-methoxypyridin-3-yl)(1-methyl-1H-imidazol-5-yl)methanol.TFA]
55% | CCOc1nc2ccc(C(O)(c3ccc(C(F)(F)F)nc3)c3cncn3C)cc2c(Cl)c1Oc1ccc(F)cc1 (centres unmarked) [Example 14a, (4-Chloro-2-ethoxy-3-(4-fluorophenoxy)quinolin-6-yl)(1-methyl-1H-imidazol-5-yl)(6-(trifluoromethyl)pyridin-3-yl)methanol]
83% | COc1nc2ccc(C(O)(c3ccc(Cl)cc3)c3cncn3C)cc2c(Cl)c1Oc1ccccc1 (centres unmarked) [Example 15a, (4-Chloro-2-methoxy-3-phenoxyquinolin-6-yl)(4-chlorophenyl)(1-methyl-1H-imidazol-5-yl)methanol]
55% | Cn1cncc1C(O)(c1ccc(C(F)(F)F)nc1)c1ccc2nc(C#N)c(Oc3ccccc3)c(C#N)c2c1 (centres unmarked) [Example 22a, 6-(Hydroxy(1-methyl-1H-imidazol-5-yl)(6-(trifluoromethyl)pyridin-3-yl)methyl)-3-phenoxyquinoline-2,4-dicarbonitrile]
75% | CCOc1nc2ccc(C(O)(c3ccc(C(F)(F)F)nc3)c3cncn3C)cc2c(C(F)(F)F)c1Oc1ccc(Cl)cc1 (centres unmarked) [Example 25a, (3-(4-Chlorophenoxy)-2-ethoxy-4-(trifluoromethyl)quinolin-6-yl)(1-methyl-1H-imidazol-5-yl)(6-(trifluoromethyl)pyridin-3-yl)methanol]
102% | Cn1cncc1C(O)(c1ccc(Cl)cc1)c1ccc2nc(N3CCC3)c(Oc3ccc(C#N)cc3)c(Cl)c2c1 (centres unmarked) [Example 32a, 4-((2-(Azetidin-1-yl)-4-chloro-6-((4-chlorophenyl)(hydroxyl)(1-methyl-1H-imidazol-5-yl)methyl)quinolin-3-yl)oxy)benzonitrile]
